Reference: patent US9708314B2, “Heterocyclic amide compound” (NISSAN CHEMICAL INDUSTRIES, LTD., priority 2013, dated 2017)

What was measured:
Assay type in all cases: in vivo
Cyperus difformis = assay: Test Example 3: herbicidal effect by application to foliage (Wagner pot, water depth 0.1-0.5 cm); details: Nineteenth Table; application to foliage; application herbicide amount 320 g/ha
Summary of the method: (§1)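 Greenhouse pot test, 25–30 °C, alluvial soil. Sown seedlings grown 14 days then sprayed on leaves and stems with emulsion diluted to target g/ha. Rating at 3 weeks, 0–5 scale (0 ≤5%, 5 ≥90%).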

[1] = tested on: Echinochloa crus-galli var. crus-galli; assay: as above; details: Nineteenth Table; application to foliage; application herbicide amount 320 g/ha
Summary of the method: as §1

Leptochloa chinensis = assay: as above; details: Nineteenth Table; application to foliage; application herbicide amount 320 g/ha
Summary of the method: as §1

[2] = tested on: directly sowed Oryza sativa; assay: Test Example 3: effect on crop by application to foliage (Wagner pot, water depth 0.1-0.5 cm); details: Nineteenth Table; application to foliage; application herbicide amount 320 g/ha
Summary of the method: as §1

Abutilon theophrasti = assay: Test Example 4: herbicidal effect by application to foliage (diluvial soil, plastic box); details: Application herbicide amount 320 g/ha; foliage application
Summary of the method: (§2)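 Greenhouse plants (25° C. to 30° C., 14 d, diluvial soil) receive a foliar spray of water-diluted emulsifiable formulation at defined g/ha. Grading after 3 weeks uses a six-step herbicidal-ratio scale, with 4 covering 70% to <90% and 1 covering 5% to <20%.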

Alopecurus myosuroides = assay: as above; details: Application herbicide amount 320 g/ha; foliage application
Summary of the method: as §2

Amaranthus retroflexus = assay: as above; details: Application herbicide amount 320 g/ha; foliage application
Summary of the method: as §2

Apera spica-venti. = assay: as above; details: Application herbicide amount 320 g/ha; foliage application
Summary of the method: as §2

Avena fatua = assay: as above; details: Application herbicide amount 320 g/ha; foliage application
Summary of the method: as §2

Chenopodium album = assay: as above; details: Application herbicide amount 320 g/ha; foliage application
Summary of the method: as §2

Digitaria ciliaris = assay: as above; details: Application herbicide amount 320 g/ha; foliage application
Summary of the method: as §2

[3] = tested on: Echinochloa crus-galli var. crus-galli; assay: as above; details: Application herbicide amount 320 g/ha; foliage application
Summary of the method: as §2

Galium spurium = assay: as above; details: Application herbicide amount 320 g/ha; foliage application
Summary of the method: as §2

Lolium multiflorum Lam. = assay: as above; details: Application herbicide amount 320 g/ha; foliage application
Summary of the method: as §2

Setaria viridis = assay: as above; details: Application herbicide amount 320 g/ha; foliage application
Summary of the method: as §2

Stellaria media = assay: as above; details: Application herbicide amount 320 g/ha; foliage application
Summary of the method: as §2

Veronica persica = assay: as above; details: Application herbicide amount 320 g/ha; foliage application
Summary of the method: as §2

[4] = tested on: Beta vulgaris ssp. vulgaris; assay: Test Example 4: effect on crop by application to foliage (diluvial soil, plastic box); details: Application herbicide amount 320 g/ha; foliage application
Summary of the method: as §2

Brassica campestris L. = assay: as above; details: Application herbicide amount 320 g/ha; foliage application
Summary of the method: as §2

Glycine max = assay: as above; details: Application herbicide amount 320 g/ha; foliage application
Summary of the method: as §2

Triticum aestivum = assay: as above; details: Application herbicide amount 320 g/ha; foliage application
Summary of the method: as §2

Zea mays = assay: as above; details: Application herbicide amount 320 g/ha; foliage application
Summary of the method: as §2

## CC(C)N(C)c1nnc2c(C(=O)Nc3nnco3)ccc(C(F)(F)F)n12 [1-122]
Cyperus difformis
  E (herbicidal effect grade): 5 (Herbicidal ratio of 90% or more (almost completely withered))
[1]
  H (herbicidal effect grade): 5 (Herbicidal ratio of 90% or more (almost completely withered))
Leptochloa chinensis
  D (herbicidal effect grade): 5 (Herbicidal ratio of 90% or more (almost completely withered))
[2]
  b (effect on crop grade): 3 (Herbicidal ratio of 40% or more and less than 70%)
Abutilon theophrasti
  M (Abutilon theophrasti) herbicidal effect grade: 5 (Herbicidal ratio of 90% or more (almost completely withered))
Alopecurus myosuroides
  J (Alopecurus myosuroides) herbicidal effect grade: 3 (Herbicidal ratio of 40% or more and less than 70%)
Amaranthus retroflexus
  N (Amaranthus retroflexus) herbicidal effect grade: 5 (Herbicidal ratio of 90% or more (almost completely withered))
Apera spica-venti.
  L (Apera spica-venti.) herbicidal effect grade: 4 (Herbicidal ratio of 70% or more and less than 90%)
Avena fatua
  I (Avena fatua) herbicidal effect grade: 2 (Herbicidal ratio of 20% or more and less than 40%)
Chenopodium album
  O (Chenopodium album) herbicidal effect grade: 5 (Herbicidal ratio of 90% or more (almost completely withered))
Digitaria ciliaris
  F (Digitaria ciliaris) herbicidal effect grade: 5 (Herbicidal ratio of 90% or more (almost completely withered))
[3]
  H (Echinochloa crus-galli var. crus-galli) herbicidal effect grade: 5 (Herbicidal ratio of 90% or more (almost completely withered))
Galium spurium
  Q (Galium spurium) herbicidal effect grade: 4 (Herbicidal ratio of 70% or more and less than 90%)
Lolium multiflorum Lam.
  K (Lolium multiflorum Lam.) herbicidal effect grade: 3 (Herbicidal ratio of 40% or more and less than 70%)
Setaria viridis
  G (Setaria viridis) herbicidal effect grade: 5 (Herbicidal ratio of 90% or more (almost completely withered))
Stellaria media
  P (Stellaria media) herbicidal effect grade: 5 (Herbicidal ratio of 90% or more (almost completely withered))
Veronica persica
  R (Veronica persica) herbicidal effect grade: 5 (Herbicidal ratio of 90% or more (almost completely withered))
[4]
  f (Beta vulgaris ssp. vulgaris) effect on crop grade: 5 (Herbicidal ratio of 90% or more (almost completely withered))
Brassica campestris L.
  g (Brassica campestris L.) effect on crop grade: 5 (Herbicidal ratio of 90% or more (almost completely withered))
Glycine max
  d (Glycine max) effect on crop grade: 5 (Herbicidal ratio of 90% or more (almost completely withered))
Triticum aestivum
  e (Triticum aestivum) effect on crop grade: 2 (Herbicidal ratio of 20% or more and less than 40%)
Zea mays
  c (Zea mays) effect on crop grade: 2 (Herbicidal ratio of 20% or more and less than 40%)

## CN(c1nnc2c(C(=O)Nc3nnco3)ccc(C(F)(F)F)n12)C1CCCCC1 [1-123]
Cyperus difformis
  E (herbicidal effect grade): 4 (Herbicidal ratio of 70% or more and less than 90%)
[1]
  H (herbicidal effect grade): 4 (Herbicidal ratio of 70% or more and less than 90%)
Leptochloa chinensis
  D (herbicidal effect grade): 4 (Herbicidal ratio of 70% or more and less than 90%)
[2]
  b (effect on crop grade): 1 (Herbicidal ratio of 5% or more and less than 20%)
Abutilon theophrasti
  M (Abutilon theophrasti) herbicidal effect grade: 4 (Herbicidal ratio of 70% or more and less than 90%)
Alopecurus myosuroides
  J (Alopecurus myosuroides) herbicidal effect grade: 0 (Herbicidal ratio of 5% or less (almost no effect))
Amaranthus retroflexus
  N (Amaranthus retroflexus) herbicidal effect grade: 4 (Herbicidal ratio of 70% or more and less than 90%)
Apera spica-venti.
  L (Apera spica-venti.) herbicidal effect grade: 0 (Herbicidal ratio of 5% or less (almost no effect))
Avena fatua
  I (Avena fatua) herbicidal effect grade: 1 (Herbicidal ratio of 5% or more and less than 20%)
Chenopodium album
  O (Chenopodium album) herbicidal effect grade: 5 (Herbicidal ratio of 90% or more (almost completely withered))
Digitaria ciliaris
  F (Digitaria ciliaris) herbicidal effect grade: 4 (Herbicidal ratio of 70% or more and less than 90%)
[3]
  H (Echinochloa crus-galli var. crus-galli) herbicidal effect grade: 4 (Herbicidal ratio of 70% or more and less than 90%)
Galium spurium
  Q (Galium spurium) herbicidal effect grade: 2 (Herbicidal ratio of 20% or more and less than 40%)
Lolium multiflorum Lam.
  K (Lolium multiflorum Lam.) herbicidal effect grade: 0 (Herbicidal ratio of 5% or less (almost no effect))
Setaria viridis
  G (Setaria viridis) herbicidal effect grade: 3 (Herbicidal ratio of 40% or more and less than 70%)
Stellaria media
  P (Stellaria media) herbicidal effect grade: 4 (Herbicidal ratio of 70% or more and less than 90%)
Veronica persica
  R (Veronica persica) herbicidal effect grade: 3 (Herbicidal ratio of 40% or more and less than 70%)
[4]
  f (Beta vulgaris ssp. vulgaris) effect on crop grade: 4 (Herbicidal ratio of 70% or more and less than 90%)
Brassica campestris L.
  g (Brassica campestris L.) effect on crop grade: 3 (Herbicidal ratio of 40% or more and less than 70%)
Glycine max
  d (Glycine max) effect on crop grade: 3 (Herbicidal ratio of 40% or more and less than 70%)
Triticum aestivum
  e (Triticum aestivum) effect on crop grade: 0 (Herbicidal ratio of 5% or less (almost no effect))
Zea mays
  c (Zea mays) effect on crop grade: 0 (Herbicidal ratio of 5% or less (almost no effect))

## Cc1nnc(NC(=O)c2ccc(C(F)(F)F)n3c(SCC(F)(F)F)nnc23)o1 [1-124]
Cyperus difformis
  E (herbicidal effect grade): 4 (Herbicidal ratio of 70% or more and less than 90%)
[1]
  H (herbicidal effect grade): 4 (Herbicidal ratio of 70% or more and less than 90%)
Leptochloa chinensis
  D (herbicidal effect grade): 4 (Herbicidal ratio of 70% or more and less than 90%)
[2]
  b (effect on crop grade): 0 (Herbicidal ratio of 5% or less (almost no effect))
Abutilon theophrasti
  M (Abutilon theophrasti) herbicidal effect grade: 5 (Herbicidal ratio of 90% or more (almost completely withered))
Alopecurus myosuroides
  J (Alopecurus myosuroides) herbicidal effect grade: 0 (Herbicidal ratio of 5% or less (almost no effect))
Amaranthus retroflexus
  N (Amaranthus retroflexus) herbicidal effect grade: 4 (Herbicidal ratio of 70% or more and less than 90%)
Apera spica-venti.
  L (Apera spica-venti.) herbicidal effect grade: 1 (Herbicidal ratio of 5% or more and less than 20%)
Avena fatua
  I (Avena fatua) herbicidal effect grade: 2 (Herbicidal ratio of 20% or more and less than 40%)
Chenopodium album
  O (Chenopodium album) herbicidal effect grade: 5 (Herbicidal ratio of 90% or more (almost completely withered))
Digitaria ciliaris
  F (Digitaria ciliaris) herbicidal effect grade: 5 (Herbicidal ratio of 90% or more (almost completely withered))
[3]
  H (Echinochloa crus-galli var. crus-galli) herbicidal effect grade: 5 (Herbicidal ratio of 90% or more (almost completely withered))
Galium spurium
  Q (Galium spurium) herbicidal effect grade: 2 (Herbicidal ratio of 20% or more and less than 40%)
Lolium multiflorum Lam.
  K (Lolium multiflorum Lam.) herbicidal effect grade: 0 (Herbicidal ratio of 5% or less (almost no effect))
Setaria viridis
  G (Setaria viridis) herbicidal effect grade: 3 (Herbicidal ratio of 40% or more and less than 70%)
Stellaria media
  P (Stellaria media) herbicidal effect grade: 3 (Herbicidal ratio of 40% or more and less than 70%)
Veronica persica
  R (Veronica persica) herbicidal effect grade: 2 (Herbicidal ratio of 20% or more and less than 40%)
[4]
  f (Beta vulgaris ssp. vulgaris) effect on crop grade: 3 (Herbicidal ratio of 40% or more and less than 70%)
Brassica campestris L.
  g (Brassica campestris L.) effect on crop grade: 0 (Herbicidal ratio of 5% or less (almost no effect))
Glycine max
  d (Glycine max) effect on crop grade: 3 (Herbicidal ratio of 40% or more and less than 70%)
Triticum aestivum
  e (Triticum aestivum) effect on crop grade: 0 (Herbicidal ratio of 5% or less (almost no effect))
Zea mays
  c (Zea mays) effect on crop grade: 1 (Herbicidal ratio of 5% or more and less than 20%)

## COCCN(C)c1nnc2c(C(=O)Nc3nnc(C)o3)ccc(C(F)(F)F)n12 [1-129]
Cyperus difformis
  E (herbicidal effect grade): 4 (Herbicidal ratio of 70% or more and less than 90%)
[1]
  H (herbicidal effect grade): 5 (Herbicidal ratio of 90% or more (almost completely withered))
Leptochloa chinensis
  D (herbicidal effect grade): 5 (Herbicidal ratio of 90% or more (almost completely withered))
[2]
  b (effect on crop grade): 3 (Herbicidal ratio of 40% or more and less than 70%)
Abutilon theophrasti
  M (Abutilon theophrasti) herbicidal effect grade: 3 (Herbicidal ratio of 40% or more and less than 70%)
Alopecurus myosuroides
  J (Alopecurus myosuroides) herbicidal effect grade: 1 (Herbicidal ratio of 5% or more and less than 20%)
Amaranthus retroflexus
  N (Amaranthus retroflexus) herbicidal effect grade: 4 (Herbicidal ratio of 70% or more and less than 90%)
Apera spica-venti.
  L (Apera spica-venti.) herbicidal effect grade: 1 (Herbicidal ratio of 5% or more and less than 20%)
Avena fatua
  I (Avena fatua) herbicidal effect grade: 2 (Herbicidal ratio of 20% or more and less than 40%)
Chenopodium album
  O (Chenopodium album) herbicidal effect grade: 5 (Herbicidal ratio of 90% or more (almost completely withered))
Digitaria ciliaris
  F (Digitaria ciliaris) herbicidal effect grade: 4 (Herbicidal ratio of 70% or more and less than 90%)
[3]
  H (Echinochloa crus-galli var. crus-galli) herbicidal effect grade: 5 (Herbicidal ratio of 90% or more (almost completely withered))
Galium spurium
  Q (Galium spurium) herbicidal effect grade: 0 (Herbicidal ratio of 5% or less (almost no effect))
Lolium multiflorum Lam.
  K (Lolium multiflorum Lam.) herbicidal effect grade: 1 (Herbicidal ratio of 5% or more and less than 20%)
Setaria viridis
  G (Setaria viridis) herbicidal effect grade: 4 (Herbicidal ratio of 70% or more and less than 90%)
Stellaria media
  P (Stellaria media) herbicidal effect grade: 5 (Herbicidal ratio of 90% or more (almost completely withered))
[4]
  f (Beta vulgaris ssp. vulgaris) effect on crop grade: 5 (Herbicidal ratio of 90% or more (almost completely withered))
Brassica campestris L.
  g (Brassica campestris L.) effect on crop grade: 3 (Herbicidal ratio of 40% or more and less than 70%)
Glycine max
  d (Glycine max) effect on crop grade: 4 (Herbicidal ratio of 70% or more and less than 90%)
Triticum aestivum
  e (Triticum aestivum) effect on crop grade: 1 (Herbicidal ratio of 5% or more and less than 20%)
Zea mays
  c (Zea mays) effect on crop grade: 2 (Herbicidal ratio of 20% or more and less than 40%)
